We go through 1 compound from patent US8673347B2 (Creabilis Therapeutics S.p.A., priority 2005, dated 2014).

Read-outs that look alike come from different tables or passages of the source.

Series [1] can be described thus: PK study in mice, repeated dermal administration. The settings on record: repeated dermal QD for 5 days, 1.03 mg/kg (about 2 μmol/kg), t = 3 h after last administration. Type of series: in vivo. As for the experimental part: (§1) At each sampling time, approximately 0.4 mL blood samples were collected from the ventral aorta of each animal using an insulin syringe, under deep ether anesthesia, and transferred into polyethylene Eppendorf tubes containing 50 μL of 5% EDTA water solution to prevent blood clotting. Blood samples were kept in ice until centrifugation at 1400 g for 5 min. in a refrigerated centrifuge (2-4° C.). From each tube plasma samples were then recovered, put in new Eppendorf tubes and frozen at −20° C. which until the HPLC analysis.

The target in another series is FGR (Homo sapiens, UniProt P09769). Briefly: Kinase inhibition profile. Type of series: biochemical. The settings on record: 200 nM; read-out: inhibitory activity. As for the experimental part:
(§2) The preparation of CT327 and the reference compounds was conducted following a similar procedure. CT327 also was tested at a concentration of 200 nM.
(§3) The inhibitory activity of CT327 against the tested tyrosine kinase and serine/threonine kinases is shown in the Table a and b, respectively, reported in FIG. 9b.

Another series has as its target CaMK2a (Homo sapiens, UniProt Q9UQM7). As to the kind of experiment: Kinase inhibition profile. To be noted: 200 nM; read-out: inhibitory activity. Type of series: biochemical. Here is the method: as §2, §3
The target of the next series is PDGFRβ (Homo sapiens, UniProt P09619). As to the kind of experiment: Kinase inhibition profile. In kind it is biochemical. The settings on record: 200 nM; read-out: inhibitory activity. As for the experimental part:
as §2, §3

Another series deals with PDGFRα (Homo sapiens, UniProt P16234). As to the kind of experiment: Kinase inhibition profile. Type of series: biochemical. The settings on record: 200 nM; read-out: inhibitory activity. As for the experimental part:
as §2, §3

The target of another series is JAK2 (Homo sapiens, UniProt O60674). Briefly: Kinase inhibition profile. In kind it is biochemical. The settings on record: 200 nM; read-out: inhibitory activity. As for the experimental part: as §2, §3
A further series concerns the target TrkB (Homo sapiens, UniProt Q16620). As to the kind of experiment: Kinase inhibition profile. In kind it is biochemical. To be noted: 200 nM; read-out: inhibitory activity. As for the experimental part:
as §2, §3

A further series concerns the target AurA (Homo sapiens, UniProt O14965). Briefly: Kinase inhibition profile. Type of series: biochemical. To be noted: 200 nM; read-out: inhibitory activity. As for the experimental part: as §2, §3
Another series has as its target TNK1 (Homo sapiens, UniProt Q13470). As to the kind of experiment: Kinase inhibition profile. To be noted: 200 nM; read-out: inhibitory activity. Type of series: biochemical. As for the experimental part:
as §2, §3

The target in the next series is JNK1 (Homo sapiens, UniProt P45983). As to the kind of experiment: Kinase inhibition profile. In kind it is biochemical. To be noted: 200 nM; read-out: inhibitory activity. As for the experimental part:
as §2, §3

The test system of a further series is human keratinocytes. As to the kind of experiment: MTT-assay, antiproliferative activity on keratinocytes. In kind it is cell-based. Here is the method: A metabolic MTT-assay was performed as test of the cellular vitality. The MTT-assay was performed using a well known and validated protocol, whereby the results are quantified through a spectrophotometric lecture, the number of living cells being directly proportional to the quantity of the formazan product formed as reduction product of MTT ([3-(4,5-dimethylthiazol-2-yl)-2,5-diphenyltetrazoliumbromid]) (Mosmann T., Rapid colorimetric assay for cellular growth and survival: Application to proliferation and cytotoxicity assays. J. Immunol. Methods. 1983, Dec. 16, 65(1-2):55-63). In the present study, the MTT-assay was performed on subconfluent cultures of keratinocytes seeded in 96-well plates for cellular culture (8000 cells/well). After the cells have been exposed to the substance which has to be analyzed, the cells are incubated for 4 hours at 37° C. with MTT (0.05%) in serum-free keratinocyte growth medium (KGM Clonetics Corp. San Diego, Calif., USA). After solubilisation of the cells with detergents, the formation of the dyestuff formazan is detected using a spectrophotometer for multi-well plate at 540 nm. The results are given as optical density unit (OD). […]
For orientation: Tetrazolium assays rely on reduction of a dye to a coloured formazan, in cell work by metabolically active cells.

The test system of another series is protein kinase C (PKC). To be noted: cited from earlier work.
Series [2] is described as follows: Dermal absorption study in mice of K-252a versus K-252a-PEG. In kind it is in vivo. The settings on record: male, Balb/C, mouse, plasma, topical, 3 mg/kg dermal. As for the experimental part:
The experiment was performed using a dose of active agent in both preparation of 3 mg/kg. For the present study, three subsequent experiments have been performed in vivo using each time 6 Balb/C male mice purchased from Charles River (Calco, Italy). The mice were subdivided in the following experimental groups (two animals per group): • Group 1: The mice were treated with 3 mg/kg of K-252-a, by dermal administration and sacrificed after 30 minutes. • Group 2: The mice were treated with 3 mg/kg of K-252-a by dermal administration and sacrificed after 60 minutes. • Group 3: The mice were treated with 3 mg/kg of K-252-a-PEG(2K) of Example 1 by dermal administration and sacrificed after 60 minutes.
The oil-based preparations are in form of emulsions which are rendered homogeneous by repeated sonication. […] The applied emulsion was gently massaged on the back of the mice to favor the absorption. The mice were then sacrificed respectively after 30 or 60 minutes under ether anaesthesia and the blood was collected from the ventral aorta with the insulin syringe (approx. 1 mL/animal). […] The blood samples were then centrifugated at 2000 g for 5 minutes in a refrigerated (4° C.) centrifuge, purified by solid phase extraction (SPE) and subsequently analyzed through HPLC quantitative analysis (RT-HPLC analysis with)(Terra C18 column, eluent water/ACN). […]

The nature of series [3]: PK study in mice, single dermal administration. Type of series: in vivo. Here is the method:
as §1
Computer fitting of the data from each experimental group was then performed by NCOMP version 3.1 program (P. B. Laub et al., Journal of Pharmaceutical Sciences, 1996, 85(4):393-395). Values for area under the plasma concentration-time profile, T1/2, Tmax, Cmax, etc. were calculated by conventional formulas previously described (Gibaldi et al., Pharmacokinetics, 1982, Marcel Dekker, Inc., New York).

Setting [4] is: male, Balb/c, mouse, topical or ocular, 10 umol/kg, single dermal, plasma.

FGR, sequence (P09769 whole entry, species assumed): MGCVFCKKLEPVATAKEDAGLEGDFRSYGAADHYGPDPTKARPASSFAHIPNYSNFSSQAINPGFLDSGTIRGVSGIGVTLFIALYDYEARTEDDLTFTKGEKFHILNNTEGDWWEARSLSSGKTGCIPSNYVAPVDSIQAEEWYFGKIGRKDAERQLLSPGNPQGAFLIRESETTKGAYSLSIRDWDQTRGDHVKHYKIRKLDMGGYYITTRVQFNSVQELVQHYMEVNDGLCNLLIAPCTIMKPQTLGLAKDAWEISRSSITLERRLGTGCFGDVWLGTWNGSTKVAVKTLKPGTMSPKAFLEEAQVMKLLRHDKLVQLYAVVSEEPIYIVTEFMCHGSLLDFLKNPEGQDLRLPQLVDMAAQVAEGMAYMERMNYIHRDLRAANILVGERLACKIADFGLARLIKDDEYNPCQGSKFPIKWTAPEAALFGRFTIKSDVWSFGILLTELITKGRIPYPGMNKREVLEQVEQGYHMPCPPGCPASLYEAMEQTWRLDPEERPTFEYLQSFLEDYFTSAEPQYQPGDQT
PDGFRα, sequence (P16234 24-1089, species assumed): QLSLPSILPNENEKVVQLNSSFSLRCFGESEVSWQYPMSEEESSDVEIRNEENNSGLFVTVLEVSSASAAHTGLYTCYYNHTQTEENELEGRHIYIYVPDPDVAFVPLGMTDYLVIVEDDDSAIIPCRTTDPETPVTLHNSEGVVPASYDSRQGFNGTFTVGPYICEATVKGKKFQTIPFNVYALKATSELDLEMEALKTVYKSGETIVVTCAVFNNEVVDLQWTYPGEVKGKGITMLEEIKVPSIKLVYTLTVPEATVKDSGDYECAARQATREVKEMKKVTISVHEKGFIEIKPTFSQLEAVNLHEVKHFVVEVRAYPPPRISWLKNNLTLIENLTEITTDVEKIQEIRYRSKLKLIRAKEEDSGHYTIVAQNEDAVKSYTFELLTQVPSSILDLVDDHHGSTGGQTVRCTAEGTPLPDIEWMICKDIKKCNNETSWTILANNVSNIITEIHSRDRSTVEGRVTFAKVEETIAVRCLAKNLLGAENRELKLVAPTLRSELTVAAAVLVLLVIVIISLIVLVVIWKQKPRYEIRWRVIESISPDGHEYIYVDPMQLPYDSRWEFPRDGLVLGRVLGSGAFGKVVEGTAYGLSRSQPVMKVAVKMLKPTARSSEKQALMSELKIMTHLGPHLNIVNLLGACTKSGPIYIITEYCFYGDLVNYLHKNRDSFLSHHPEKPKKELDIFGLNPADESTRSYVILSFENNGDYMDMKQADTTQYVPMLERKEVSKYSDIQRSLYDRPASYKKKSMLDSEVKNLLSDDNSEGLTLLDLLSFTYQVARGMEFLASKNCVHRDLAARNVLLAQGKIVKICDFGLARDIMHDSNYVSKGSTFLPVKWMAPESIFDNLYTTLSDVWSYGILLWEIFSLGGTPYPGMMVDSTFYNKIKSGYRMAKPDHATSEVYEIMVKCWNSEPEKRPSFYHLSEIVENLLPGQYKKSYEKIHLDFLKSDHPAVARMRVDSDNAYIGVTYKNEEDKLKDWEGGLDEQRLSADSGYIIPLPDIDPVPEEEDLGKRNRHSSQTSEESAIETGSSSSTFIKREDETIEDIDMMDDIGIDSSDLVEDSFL
AurA, sequence (O14965 whole entry, species assumed): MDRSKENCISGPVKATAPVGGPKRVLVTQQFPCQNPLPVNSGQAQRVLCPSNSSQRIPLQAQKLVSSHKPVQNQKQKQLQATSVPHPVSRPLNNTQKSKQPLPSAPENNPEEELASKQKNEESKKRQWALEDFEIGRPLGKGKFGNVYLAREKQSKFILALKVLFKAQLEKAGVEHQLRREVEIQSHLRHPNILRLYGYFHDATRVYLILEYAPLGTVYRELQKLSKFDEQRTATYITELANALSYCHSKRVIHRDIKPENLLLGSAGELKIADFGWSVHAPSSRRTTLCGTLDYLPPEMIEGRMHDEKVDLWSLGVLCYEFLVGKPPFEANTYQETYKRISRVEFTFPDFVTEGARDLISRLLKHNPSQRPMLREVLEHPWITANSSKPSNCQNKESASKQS
PDGFRβ, sequence (P09619 33-1106, species assumed): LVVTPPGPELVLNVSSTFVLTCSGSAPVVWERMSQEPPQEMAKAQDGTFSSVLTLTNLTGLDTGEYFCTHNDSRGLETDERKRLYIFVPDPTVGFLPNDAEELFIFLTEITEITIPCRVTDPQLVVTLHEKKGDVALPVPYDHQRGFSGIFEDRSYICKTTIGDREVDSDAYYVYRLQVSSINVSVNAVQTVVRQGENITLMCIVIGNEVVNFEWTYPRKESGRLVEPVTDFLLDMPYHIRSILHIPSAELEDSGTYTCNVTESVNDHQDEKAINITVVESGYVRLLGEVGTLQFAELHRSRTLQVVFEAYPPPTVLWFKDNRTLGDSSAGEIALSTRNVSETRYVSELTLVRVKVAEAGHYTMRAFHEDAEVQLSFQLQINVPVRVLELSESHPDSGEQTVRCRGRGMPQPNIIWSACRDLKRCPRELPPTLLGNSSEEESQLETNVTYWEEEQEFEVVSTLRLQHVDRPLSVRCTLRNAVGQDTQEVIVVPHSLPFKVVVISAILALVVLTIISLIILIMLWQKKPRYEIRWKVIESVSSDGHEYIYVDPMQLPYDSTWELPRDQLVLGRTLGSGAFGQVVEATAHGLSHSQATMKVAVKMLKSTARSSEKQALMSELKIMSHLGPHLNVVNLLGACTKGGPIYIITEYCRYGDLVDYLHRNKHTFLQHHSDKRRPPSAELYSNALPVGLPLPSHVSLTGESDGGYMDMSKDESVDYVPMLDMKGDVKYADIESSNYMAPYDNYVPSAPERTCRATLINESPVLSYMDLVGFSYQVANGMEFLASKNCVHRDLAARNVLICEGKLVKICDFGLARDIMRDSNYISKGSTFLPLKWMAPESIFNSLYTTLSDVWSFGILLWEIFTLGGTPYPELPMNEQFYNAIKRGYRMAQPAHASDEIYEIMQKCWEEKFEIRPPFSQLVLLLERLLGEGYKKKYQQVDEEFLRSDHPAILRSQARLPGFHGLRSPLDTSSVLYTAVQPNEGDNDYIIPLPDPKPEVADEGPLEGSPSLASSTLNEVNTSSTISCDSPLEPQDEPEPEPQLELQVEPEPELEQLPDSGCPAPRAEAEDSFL
CaMK2a, sequence (Q9UQM7 whole entry): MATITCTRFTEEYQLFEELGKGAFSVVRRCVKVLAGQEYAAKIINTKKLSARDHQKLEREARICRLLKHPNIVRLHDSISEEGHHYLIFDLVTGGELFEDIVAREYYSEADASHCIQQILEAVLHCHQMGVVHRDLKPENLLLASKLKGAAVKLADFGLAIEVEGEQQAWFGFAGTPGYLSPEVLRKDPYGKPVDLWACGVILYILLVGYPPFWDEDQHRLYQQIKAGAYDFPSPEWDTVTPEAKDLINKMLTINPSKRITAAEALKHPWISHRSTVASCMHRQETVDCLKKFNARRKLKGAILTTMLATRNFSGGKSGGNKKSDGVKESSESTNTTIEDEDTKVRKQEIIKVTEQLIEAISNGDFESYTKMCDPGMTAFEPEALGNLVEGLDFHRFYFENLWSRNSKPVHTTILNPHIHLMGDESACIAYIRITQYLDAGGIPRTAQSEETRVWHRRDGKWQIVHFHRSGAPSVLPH
TNK1, sequence (Q13470 whole entry, species assumed): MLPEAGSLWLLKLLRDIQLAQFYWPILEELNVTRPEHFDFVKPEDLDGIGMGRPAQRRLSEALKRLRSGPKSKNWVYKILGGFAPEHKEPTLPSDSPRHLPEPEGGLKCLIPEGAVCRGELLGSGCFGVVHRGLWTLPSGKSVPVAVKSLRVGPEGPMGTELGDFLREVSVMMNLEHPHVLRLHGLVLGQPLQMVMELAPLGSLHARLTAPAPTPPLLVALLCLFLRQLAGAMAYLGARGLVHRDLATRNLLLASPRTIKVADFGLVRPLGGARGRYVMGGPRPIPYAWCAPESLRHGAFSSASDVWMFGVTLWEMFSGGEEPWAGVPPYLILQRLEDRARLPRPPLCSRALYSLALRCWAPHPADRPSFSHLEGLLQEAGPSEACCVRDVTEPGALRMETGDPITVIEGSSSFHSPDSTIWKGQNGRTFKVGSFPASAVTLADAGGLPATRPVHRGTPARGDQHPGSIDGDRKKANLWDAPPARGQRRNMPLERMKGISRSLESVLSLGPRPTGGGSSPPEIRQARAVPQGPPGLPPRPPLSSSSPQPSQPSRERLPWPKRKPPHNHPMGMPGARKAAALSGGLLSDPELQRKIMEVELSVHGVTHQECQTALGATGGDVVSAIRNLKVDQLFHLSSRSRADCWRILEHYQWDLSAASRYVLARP
JNK1, sequence (P45983 whole entry, species assumed): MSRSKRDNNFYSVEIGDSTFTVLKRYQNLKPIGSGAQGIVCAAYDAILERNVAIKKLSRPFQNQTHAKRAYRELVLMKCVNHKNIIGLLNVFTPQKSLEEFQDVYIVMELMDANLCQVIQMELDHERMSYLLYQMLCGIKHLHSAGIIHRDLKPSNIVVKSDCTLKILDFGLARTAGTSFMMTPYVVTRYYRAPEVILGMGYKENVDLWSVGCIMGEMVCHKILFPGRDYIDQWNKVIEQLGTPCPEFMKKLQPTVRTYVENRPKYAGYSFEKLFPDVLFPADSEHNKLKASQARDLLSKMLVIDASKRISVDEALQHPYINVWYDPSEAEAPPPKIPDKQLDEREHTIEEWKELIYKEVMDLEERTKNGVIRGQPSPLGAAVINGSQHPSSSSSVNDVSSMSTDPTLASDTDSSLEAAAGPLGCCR

On to `COC(=O)[C@]1(O)C[C@@H]2O[C@@]1(C)n1c3ccccc3c3c4c(c5c6ccccc6n2c5c31)C(=O)NC4` [Compound K-252a, K-252a], for which the concentration at 3 h was determined as 110 nM in [1] (male, Balb/c, mouse, plasma, topical, 1.03 mg/kg); 110.19 nM in series [1] (read-out: Mean Plasma Concentration); 72.9 nM in series [3] (male, Balb/c, mouse, plasma, topical, single dermal administration at same dosage (2 μmol/kg) and time point (3 hours), value±95% CI). Also, the inhibition at 0.2 µM on FGR is 80 to 90%; at CaMK2a, 80 to 90%; on PDGFRβ it was > 90%; at PDGFRα it was > 90%; at JAK2 it was > 90%; on TrkB, > 90%. For the same compound, the inhibition at 0.2 µM on AurA, on TNK1 and at JNK1 was > 90% throughout. Moreover, in the series with human keratinocytes (any contact time (1, 2, 4 h), cell counting after 48 h), the “concentration with statistically significant antiproliferative action” value is 200 nM. Also, the antiproliferative activity result with human keratinocytes (contact 1, 2, 4 h, cell counting after 96 h) is “obtained for any tested concentration and any contact time”. Moreover, the “inhibition of protein kinase C” value in the series with protein kinase C (PKC) is reported as “strongly inhibits”. The concentration at 30 min in series [2] (sacrificed after 30 minutes) stood at 23.3 ng/mL. In addition, the concentration at 60 min in series [2] (sacrificed after 60 minutes) came to 42.1 ng/mL. Moreover, the half-life in series [3] (male, Balb/c, mouse, plasma, topical or ocular, 5.075 mg/kg, single dermal administration, read-out: half-life) was determined as 1.05 h; in series [3] (male, Balb/c, mouse, topical or ocular, 10 umol/kg, single dermal, 10 μmol/kg, plasma, read-out: Terminal T1/2) it was 1.05 h. This compound also had an area under the curve AUC(0-inf) in [3] (setting [4]) of 4.75 µM·h. The same compound had a Cmax in [3] (setting [4]) of 908 nM. Further, the time to peak (Tmax) in series [3] (setting [4]) is 3 h. Further, the “time detectable in plasma after administration” value in [3] (single dermal administration) is ≥ 9 h.

One may read the AUC(0-inf) as the area under the concentration-time curve extrapolated to infinity. Higher therefore signals more exposure. The term Cmax denotes the maximum level reached in the sampled fluid or tissue. A word on the Tmax: it is the time from dosing to the highest level.
